± gives the expanded uncertainty stated by the source.
Test: isobaric coefficient of expansion
Settings: Liquid, DSC with Pressure Shift

CCCCCN [1-pentanamine]
isobaric coefficient of expansion
Settings | 278.15 K | 288.15 K | 298.15 K | 308.15 K | 318.15 K | 328.15 K | 338.15 K | 348.15 K
5000 kPa | 0.00109 ± 4.6e-05 1/K | 0.00111 ± 4.7e-05 1/K | 0.00112 ± 4.8e-05 1/K | 0.00114 ± 4.8e-05 1/K | 0.00116 ± 4.9e-05 1/K | 0.00118 ± 5e-05 1/K | 0.0012 ± 5.1e-05 1/K | 0.00123 ± 5.2e-05 1/K
10000 kPa | 0.00107 ± 4.5e-05 1/K | 0.00108 ± 4.6e-05 1/K | 0.00109 ± 4.6e-05 1/K | 0.00111 ± 4.7e-05 1/K | 0.00112 ± 4.8e-05 1/K | 0.00114 ± 4.8e-05 1/K | 0.00116 ± 4.9e-05 1/K | 0.00118 ± 5e-05 1/K
15000 kPa | 0.00105 ± 4.5e-05 1/K | 0.00106 ± 4.5e-05 1/K | 0.00107 ± 4.5e-05 1/K | 0.00108 ± 4.6e-05 1/K | 0.00109 ± 4.6e-05 1/K | 0.0011 ± 4.7e-05 1/K | 0.00112 ± 4.7e-05 1/K | 0.00113 ± 4.8e-05 1/K
20000 kPa | 0.00102 ± 4.3e-05 1/K | 0.00104 ± 4.4e-05 1/K | 0.00104 ± 4.4e-05 1/K | 0.00106 ± 4.5e-05 1/K | 0.00106 ± 4.5e-05 1/K | 0.00107 ± 4.5e-05 1/K | 0.00108 ± 4.6e-05 1/K | 0.0011 ± 4.6e-05 1/K
25000 kPa | 0.00101 ± 4.3e-05 1/K | 0.00102 ± 4.3e-05 1/K | 0.00102 ± 4.3e-05 1/K | 0.00103 ± 4.4e-05 1/K | 0.00104 ± 4.4e-05 1/K | 0.00104 ± 4.4e-05 1/K | 0.00105 ± 4.5e-05 1/K | 0.00106 ± 4.5e-05 1/K
30000 kPa | 0.000988 ± 4.2e-05 1/K | 0.000994 ± 4.2e-05 1/K | 0.001 ± 4.2e-05 1/K | 0.00101 ± 4.3e-05 1/K | 0.00101 ± 4.3e-05 1/K | 0.00102 ± 4.3e-05 1/K | 0.00102 ± 4.3e-05 1/K | 0.00103 ± 4.4e-05 1/K
35000 kPa | 0.000969 ± 4.1e-05 1/K | 0.000973 ± 4.1e-05 1/K | 0.000981 ± 4.2e-05 1/K | 0.000988 ± 4.2e-05 1/K | 0.000989 ± 4.2e-05 1/K | 0.000989 ± 4.2e-05 1/K | 0.000993 ± 4.2e-05 1/K | 0.000999 ± 4.2e-05 1/K
40000 kPa | 0.000954 ± 4e-05 1/K | 0.000958 ± 4.1e-05 1/K | 0.000966 ± 4.1e-05 1/K | 0.000968 ± 4.1e-05 1/K | 0.000967 ± 4.1e-05 1/K | 0.000971 ± 4.1e-05 1/K | 0.000972 ± 4.1e-05 1/K | 0.000972 ± 4.1e-05 1/K
45000 kPa | 0.000938 ± 4e-05 1/K | 0.000937 ± 4e-05 1/K | 0.000944 ± 4e-05 1/K | 0.000949 ± 4e-05 1/K | 0.000947 ± 4e-05 1/K | 0.000949 ± 4e-05 1/K | 0.000951 ± 4e-05 1/K | 0.000954 ± 4e-05 1/K
50000 kPa | 0.000921 ± 3.9e-05 1/K | 0.000925 ± 3.9e-05 1/K | 0.000927 ± 3.9e-05 1/K | 0.000929 ± 3.9e-05 1/K | 0.000928 ± 3.9e-05 1/K | 0.000931 ± 4e-05 1/K | 0.00093 ± 3.9e-05 1/K | 0.00093 ± 3.9e-05 1/K
55000 kPa | 0.000895 ± 3.8e-05 1/K | 0.0009 ± 3.8e-05 1/K | 0.000894 ± 3.8e-05 1/K | 0.000898 ± 3.8e-05 1/K | 0.000898 ± 3.8e-05 1/K | 0.000898 ± 3.8e-05 1/K | 0.000899 ± 3.8e-05 1/K | 0.000891 ± 3.8e-05 1/K

CCCC(C)O (stereo unspecified) [pentan-2-ol]
isobaric coefficient of expansion
Settings | 278.15 K | 288.15 K | 298.15 K | 308.15 K | 318.15 K | 328.15 K | 338.15 K | 348.15 K
5000 kPa | 0.000883 ± 3.7e-05 1/K | 0.000922 ± 3.9e-05 1/K | 0.000961 ± 4.1e-05 1/K | 0.00101 ± 4.3e-05 1/K | 0.00106 ± 4.5e-05 1/K | 0.0011 ± 4.7e-05 1/K | 0.00114 ± 4.9e-05 1/K | 0.00119 ± 5e-05 1/K
10000 kPa | 0.000858 ± 3.6e-05 1/K | 0.000896 ± 3.8e-05 1/K | 0.000935 ± 4e-05 1/K | 0.000983 ± 4.2e-05 1/K | 0.00103 ± 4.4e-05 1/K | 0.00107 ± 4.5e-05 1/K | 0.00111 ± 4.7e-05 1/K | 0.00115 ± 4.9e-05 1/K
15000 kPa | 0.00084 ± 3.6e-05 1/K | 0.00088 ± 3.7e-05 1/K | 0.000914 ± 3.9e-05 1/K | 0.000956 ± 4.1e-05 1/K | 0.001 ± 4.2e-05 1/K | 0.00103 ± 4.4e-05 1/K | 0.00107 ± 4.6e-05 1/K | 0.00111 ± 4.7e-05 1/K
20000 kPa | 0.000827 ± 3.5e-05 1/K | 0.000857 ± 3.6e-05 1/K | 0.00089 ± 3.8e-05 1/K | 0.000929 ± 3.9e-05 1/K | 0.000971 ± 4.1e-05 1/K | 0.00101 ± 4.3e-05 1/K | 0.00105 ± 4.4e-05 1/K | 0.00108 ± 4.6e-05 1/K
25000 kPa | 0.000801 ± 3.4e-05 1/K | 0.000842 ± 3.6e-05 1/K | 0.000872 ± 3.7e-05 1/K | 0.000909 ± 3.9e-05 1/K | 0.000946 ± 4e-05 1/K | 0.000983 ± 4.2e-05 1/K | 0.00102 ± 4.3e-05 1/K | 0.00105 ± 4.4e-05 1/K
30000 kPa | 0.000789 ± 3.3e-05 1/K | 0.000823 ± 3.5e-05 1/K | 0.000851 ± 3.6e-05 1/K | 0.000889 ± 3.8e-05 1/K | 0.000923 ± 3.9e-05 1/K | 0.000957 ± 4.1e-05 1/K | 0.000991 ± 4.2e-05 1/K | 0.00102 ± 4.3e-05 1/K
35000 kPa | 0.000773 ± 3.3e-05 1/K | 0.000805 ± 3.4e-05 1/K | 0.000834 ± 3.5e-05 1/K | 0.000868 ± 3.7e-05 1/K | 0.000902 ± 3.8e-05 1/K | 0.000933 ± 4e-05 1/K | 0.000967 ± 4.1e-05 1/K | 0.000995 ± 4.2e-05 1/K
40000 kPa | 0.000756 ± 3.2e-05 1/K | 0.000788 ± 3.3e-05 1/K | 0.00081 ± 3.4e-05 1/K | 0.00085 ± 3.6e-05 1/K | 0.000879 ± 3.7e-05 1/K | 0.000914 ± 3.9e-05 1/K | 0.000941 ± 4e-05 1/K | 0.00097 ± 4.1e-05 1/K
45000 kPa | 0.000745 ± 3.2e-05 1/K | 0.000775 ± 3.3e-05 1/K | 0.000799 ± 3.4e-05 1/K | 0.00083 ± 3.5e-05 1/K | 0.00086 ± 3.7e-05 1/K | 0.000889 ± 3.8e-05 1/K | 0.00092 ± 3.9e-05 1/K | 0.000946 ± 4e-05 1/K
50000 kPa | 0.00073 ± 3.1e-05 1/K | 0.000758 ± 3.2e-05 1/K | 0.000784 ± 3.3e-05 1/K | 0.000814 ± 3.5e-05 1/K | 0.000841 ± 3.6e-05 1/K | 0.000872 ± 3.7e-05 1/K | 0.000899 ± 3.8e-05 1/K | 0.000923 ± 3.9e-05 1/K
55000 kPa | 0.000719 ± 3.1e-05 1/K | 0.000745 ± 3.2e-05 1/K | 0.000766 ± 3.3e-05 1/K | 0.000793 ± 3.4e-05 1/K | 0.000819 ± 3.5e-05 1/K | 0.000844 ± 3.6e-05 1/K | 0.000866 ± 3.7e-05 1/K | 0.000888 ± 3.8e-05 1/K
